Results on one compound are retold here after US9981988B2, “Polymorphic forms and co-crystals of a c-Met inhibitor” (AMGEN, INC., priority 2014, dated 2018).

A short description of this data set: Solubility in organic solvents. It is filed as physicochemical. The conditions noted are these: 20 °C, organic solvent or mixture, thermodynamic from solid; about 20 to about 25° C.; solvent not given. Here is the method:
In all studies, excess solid of the compound was allowed to equilibrate for at least 12 hours while stirring.

As a reminder, the solubility is the dissolved amount per volume that the medium holds. As for `COCCOc1cnc2ccn([C@H](C)c3nnc4c(F)cc(-c5cnn(C)c5)cn34)c(=O)c2c1` [DMSO hemisolvate form of Compound M, 6-{(1R)-1-[8-fluoro-6-(1-methyl-1H-pyrazol-4-yl)[1,2,4]triazolo[4,3-a]pyridin-3-yl]ethyl}-3-(2-methoxyethoxy)-1,6-naphthyridin-5(6H)-one], the solubility was around 164 mg/mL.
